In experiment [1] the target is recombinant human Cathepsin K (Homo sapiens (Human), UniProt P43235). As to the kind of experiment: Inhibition of human Cathepsin K. In kind it is biochemical. The conditions noted are these: substrate Z-Gly-Pro-Arg-AMC. An excerpt:
Inhibition of Human Cathepsin K
Materials: Microtiterplates (Optiplate-384 F were purchased from PerkinElmer (Prod. No. 6007270). The substrate Z-Gly-Pro-Arg-AMC was from Biomol (Prod.-No. P-142). L-Cysteine (Prod. No. 168149) was from Sigma. Sodium acetate was from Merck (Prod.-No. 6268.0250), EDTA was from Fluka (Prod.-No. 03680). The inhibitor E-64 was purchased from Sigma (Prod.-No. E3132). The recombinant human Cathepsin K proenzyme was purchased from Biomol (Prod. No. SE-367). All other materials were of highest grade commercially available.
The following buffers were used: Activation buffer: 32.5 mM sodium acetate, adjusted to pH 3.5 with HCl; Assay buffer: 150 mM sodium acetate, 4 mM EDTA, 20 mM L-Cysteine, adjusted to pH 5.5 with HCl,
To activate the proenzyme, 5 μl procathepsin K were mixed with 1 ul activation buffer, and incubated at room temperature for 30 min.
5 μL test compound (final concentration 0.1 nM to 100 μM) in aqua bidest (containing 4% DMSO, final DMSO concentration 1%) were mixed with 10 uL of Cathepsin K in assay buffer (final concentration 2 ng/μL) and incubated for 10 min. […] The plates were then incubated at room temperature for 60 min. Then, the reaction was stopped by adding 10 μL of E64 in assay buffer (final concentration 1 μM). The fluorescence in the wells was determined using a Molecular Devices SpectraMax M5 Fluorescence Reader (Ex 360 nm, Em 460 nm).
Each assay microtiter plate contains wells with vehicle controls (1% DMSO in bidest) as reference for non-inhibited enzyme activity (100% Ctl; high values) and wells with inhibitor (E64 in bidest+1% DMSO, final concentration […]) as controls for background fluorescence (0% Ctl; low values). The analysis of the data was performed by calculating the percentage of fluorescence in the presence of test compound in comparison to the fluorescence of the vehicle control after subtracting the background fluorescence: (RFU(sample)−RFU(background))*100/(RFU(control)−RFU(background))
Data from these calculations were used to generate IC50 values for inhibition of Cathepsin K, respectively.

Experiment [2] addresses recombinant human DPPI (Cathepsin C) (Homo sapiens (Human), UniProt P53634). The experiment can be described thus: Inhibition of human DPPI (Cathepsin C). In kind it is biochemical. As to conditions: substrate Gly-Arg-AMC. As for the experimental part: Inhibition of Human DPPI (Cathepsin C)
Bovine serum albumin (BSA; Prod. No. A3059) and Dithiothreitol (DTT; Prod. No D0632) were from Sigma. […] The DPP1 inhibitor Gly-Phe-DMK was purchased from MP Biomedicals (Prod.-No. 03DK00625). The recombinant human DPPI was purchased from Prozymex. All other materials were of highest grade commercially available.
The following buffers were used: MES buffer: 25 mM MES, 50 mM NaCl, 5 mM DTT, adjusted to pH 6.0, containing 0.1% BSA; TAGZyme Buffer: 20 mM NaH2PO4, 150 mM NaCl adjusted to pH 6.0 with HCl
Then, 5 μL of substrate in MES buffer (final concentration 50 μM) were added. The microtiter plates were then incubated at room temperature for 30 min. Then, the reaction was stopped by adding 10 μL of Gly-Phe-DMK in MES-buffer (final concentration 1 μM).
The analysis of the data was performed by calculating the percentage of fluorescence in the presence of test compound in comparison to the fluorescence of the vehicle control after subtracting the background fluorescence using the following formula: (RFU(sample)−RFU(background))*100/(RFU(control)−RFU(background))
Data from these calculations were used to generate IC50 values for inhibition of DPPI, respectively.

Among the data in patent US8987249B2, “Substituted 2-Aza-bicyclo[2.2.1]heptane-3-carboxylic acid (benzyl-cyano-methyl)-amides inhibitors of Cathepsin C” (Boehringer Ingelheim International GmbH, priority 2013, dated 2015) are IC50 values, retold here.

Usually IC50 stands for the concentration that gives 50% inhibition.

Chain of recombinant human DPPI (Cathepsin C) (P53634 231-394): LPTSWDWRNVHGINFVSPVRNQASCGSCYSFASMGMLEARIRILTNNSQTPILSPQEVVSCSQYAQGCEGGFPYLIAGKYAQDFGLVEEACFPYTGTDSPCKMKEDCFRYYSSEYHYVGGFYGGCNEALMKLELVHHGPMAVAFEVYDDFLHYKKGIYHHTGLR
Chain of recombinant human DPPI (Cathepsin C) (P53634 395-463): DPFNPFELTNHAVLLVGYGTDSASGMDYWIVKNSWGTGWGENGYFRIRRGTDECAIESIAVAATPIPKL
Chain of recombinant human DPPI (Cathepsin C) (P53634 25-134): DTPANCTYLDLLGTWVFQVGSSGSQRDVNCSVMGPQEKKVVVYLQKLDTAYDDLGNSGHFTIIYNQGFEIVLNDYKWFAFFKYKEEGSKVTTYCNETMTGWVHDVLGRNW
Chain of recombinant human Cathepsin K (P43235 115-329): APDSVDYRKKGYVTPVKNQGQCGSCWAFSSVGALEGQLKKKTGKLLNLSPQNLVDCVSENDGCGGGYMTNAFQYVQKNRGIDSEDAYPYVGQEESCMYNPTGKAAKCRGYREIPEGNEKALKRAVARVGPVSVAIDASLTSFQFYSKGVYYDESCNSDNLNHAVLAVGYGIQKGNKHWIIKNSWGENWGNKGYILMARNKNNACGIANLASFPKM

Take `N#C[C@H](Cc1ccc(-c2csc(C(=O)N3CCN4CCOCC4C3)c2)cc1F)NC(=O)[C@H]1N[C@@H]2CC[C@H]1C2` (stereo partly drawn) [Example 234]: the IC50 was found to be 2900 nM in experiment [1] and 3.8 nM in experiment [2].
Taken in the same sequence, the figures for `COC(=O)c1cc(-c2ccc(C[C@@H](C#N)NC(=O)[C@H]3N[C@@H]4CC[C@H]3C4)c(F)c2)cs1` [Example 17] were 6100 nM and 2.6 nM.
Take `Cn1ncc2ccc(-c3ccc(C[C@@H](C#N)NC(=O)[C@H]4N[C@H]5C[C@@H]4[C@@H]4C[C@@H]45)c(F)c3)cc21` [Example 70]: the concentration for half-maximal inhibition (IC50) in experiment [1] came to 12000 nM; in experiment [2] it was 10.2 nM.
For the compound `Cc1noc(C)c1-c1ccc(C[C@@H](C#N)NC(=O)[C@H]2N[C@@H]3CC[C@H]2C3)c(F)c1` [Example 121], the values for the IC50 in experiment [1] and in experiment [2] were 5200 nM and 156 nM, respectively.
Taken in the same sequence, the figures for `N#C[C@@H](Cc1ccc(-c2ccc3ncsc3c2)cc1F)NC(=O)[C@H]1N[C@@H]2CC[C@H]1C2` [Example 45] were 4400 nM and 6.3 nM.
In the case of `N#CC(Cc1ccc2c(c1)[nH]c1ccccc12)NC(=O)[C@H]1N[C@@H]2CC[C@H]1C2` (stereo partly drawn) [Example 203], the IC50 in experiment [1] stood at 8400 nM; in experiment [2], 23.3 nM.
Turning to `Cn1c(=O)c2cc(C[C@@H](C#N)NC(=O)[C@H]3N[C@@H]4CC[C@H]3C4)c(F)cc2c2ccccc21` [Example 326], the IC50 in experiment [1] is 1100 nM; in experiment [2] it was 1.9 nM.
Consider `CC(=O)n1cc(-c2ccc(C[C@@H](C#N)NC(=O)[C@H]3N[C@@H]4CC[C@H]3C4)c(F)c2)cn1` [Example 20], for which the IC50 in experiment [1] was 2900 nM; in experiment [2], 3.1 nM.
For the compound `N#CC(Cc1ccc(-c2ccc3c(c2)CCNC3=O)cc1F)NC(=O)[C@H]1N[C@H]2C[C@@H]1[C@@H]1C[C@@H]12` (stereo partly drawn) [Example 148], the IC50 in experiment [1] was 14600 nM; in experiment [2] it was 30.4 nM.
Regarding `Cn1nc2ccccc2c1-c1ccc(C[C@@H](C#N)NC(=O)[C@H]2N[C@@H]3CC[C@H]2C3)c(F)c1` [Example 60], the IC50 in experiment [1] turned out to be 12300 nM; in experiment [2] it was 8.7 nM.
Turning to `N#C[C@H](Cc1ccc(-c2ccco2)cc1F)NC(=O)[C@H]1N[C@@H]2CC[C@H]1C2` [Example 73], the figures for the IC50 in experiment [1] and in experiment [2] were 3100 nM and 11.2 nM, respectively.
With `N#CC(Cc1ccc(-c2ccc3c(c2)COC3=O)cc1F)NC(=O)[C@H]1N[C@@H]2CC[C@H]1C2` (stereo partly drawn) [Example 11], the IC50 in experiment [1] was 2600 nM; in experiment [2] it was 1.7 nM.
As to `N#C[C@H](Cc1ccc(-n2cc(-c3ccc4occc4c3)nn2)cc1F)NC(=O)[C@H]1N[C@@H]2CC[C@H]1C2` [Example 84], the IC50 in experiment [1] amounted to 4900 nM; in experiment [2] it was 13.7 nM.
On to `N#C[C@H](Cc1ccc(-c2ccc3c(c2)CC(=O)N3)cc1F)NC(=O)[C@H]1N[C@H]2C[C@@H]1[C@@H]1C[C@@H]12` [Example 134], for which the IC50 in experiment [1] turned out to be 6700 nM; in experiment [2], 17.8 nM.
For `COC(=O)c1cc(-c2ccc(C[C@@H](C#N)NC(=O)[C@H]3N[C@H]4C[C@@H]3[C@@H]3C[C@@H]34)c(F)c2)cs1` [Example 133], the IC50 in experiment [1] was determined as 19400 nM; in experiment [2] it was 16.1 nM.
Taken in the same sequence, the figures for `CCS(=O)(=O)c1ccc(-c2ccc(C[C@@H](C#N)NC(=O)[C@H]3N[C@H]4C[C@@H]3[C@@H]3C[C@@H]34)c(F)c2)cc1` [Example 151] were 4800 nM and 36.9 nM.
As for `CNS(=O)(=O)c1ccc(-c2ccc(CC(C#N)NC(=O)[C@H]3N[C@@H]4CC[C@H]3C4)c(F)c2)cc1` (stereo partly drawn) [Example 51], the figures for the IC50 in experiment [1] and in experiment [2] were 4900 nM and 7.5 nM, respectively.
In the case of `CS(=O)(=O)c1cccc(-c2ccc(C[C@@H](C#N)NC(=O)[C@H]3N[C@H]4C[C@@H]3[C@@H]3C[C@@H]34)c(F)c2)c1` [Example 144], the figures for the IC50 in experiment [1] and in experiment [2] were 11100 nM and 26.3 nM, respectively.
As to `N#CC(Cc1ccc(-c2ccc(S(N)(=O)=O)cc2)cc1F)NC(=O)[C@H]1N[C@@H]2CC[C@H]1C2` (stereo partly drawn) [Example 56], the figures for the IC50 in experiment [1] and in experiment [2] were 4000 nM and 8.3 nM, respectively.
Taken in the same sequence, the figures for `N#C[C@H](Cc1ccc(-c2ccc(C(=O)O)s2)cc1F)NC(=O)[C@H]1N[C@@H]2CC[C@H]1C2` [Example 115] were 2300 nM and 37.8 nM.
Turning to `CC(C)Cn1cc(-c2ccc(C[C@@H](C#N)NC(=O)[C@H]3N[C@@H]4CC[C@H]3C4)c(F)c2)cn1` [Example 64], the values for the IC50 in experiment [1] and in experiment [2] were 4200 nM and 9.3 nM, respectively.
As to `CCc1ncc(-c2ccc(C[C@@H](C#N)NC(=O)[C@H]3N[C@@H]4CC[C@H]3C4)c(F)c2)s1` [Example 46], the IC50 in experiment [1] came to 4000 nM; in experiment [2], 6.9 nM.
For the compound `N#C[C@H](Cc1ccc(-c2ccc(Cl)nc2)cc1F)NC(=O)[C@H]1N[C@H]2C[C@@H]1[C@@H]1C[C@@H]12` [Example 145], the IC50 in experiment [1] was 7400 nM; in experiment [2] it was 53.8 nM.
As for `N#Cc1sccc1-c1ccc(C[C@@H](C#N)NC(=O)[C@H]2N[C@@H]3CC[C@H]2C3)c(F)c1` [Example 85], the IC50 amounted to 3000 nM in experiment [1] and 14 nM in experiment [2].
For the compound `CS(=O)(=O)c1ccc(-c2ccc(C[C@@H](C#N)NC(=O)[C@H]3N[C@H]4C[C@@H]3[C@@H]3C[C@@H]34)c(F)c2)cc1` [Example 141], the IC50 was 8800 nM in experiment [1] and 36.6 nM in experiment [2].
As for `N#C[C@H](Cc1ccc(-c2cnc(N3CCOCC3)s2)cc1F)NC(=O)[C@H]1N[C@@H]2CC[C@H]1C2` [Example 59], the IC50 in experiment [1] came out at 2500 nM; in experiment [2], 8.5 nM.
Taken in the same sequence, the figures for `CNC(=O)c1cc(-c2ccc(C[C@@H](C#N)NC(=O)[C@H]3N[C@@H]4CC[C@H]3C4)c(F)c2)cs1` [Example 161] were 10700 nM and 1.9 nM.
Take `CCn1cc(-c2ccc(C[C@@H](C#N)NC(=O)[C@H]3N[C@H]4C[C@@H]3[C@@H]3C[C@@H]34)c(F)c2)cn1` [Example 138]: the concentration for half-maximal inhibition (IC50) is 6400 nM in experiment [1] and 14.5 nM in experiment [2].
As to `CCc1ncc(-c2ccc(C[C@@H](C#N)NC(=O)[C@H]3N[C@H]4C[C@@H]3[C@@H]3C[C@@H]34)c(F)c2)s1` [Example 113], the IC50 in experiment [1] was 8300 nM; in experiment [2], 36.4 nM.
For the compound `N#C[C@H](Cc1ccc(N2CCN(c3ccccc3)CC2)cc1F)NC(=O)[C@H]1N[C@@H]2CC[C@H]1C2` [Example 32, (1S,2S,4R)—N-[(1S)-1-cyano-2-[2-fluoro-4-(4-phenylpiperazin-1-yl)phenyl]ethyl]-3-azabicyclo[2.2.1]heptane-2-carboxamide], the concentration for half-maximal inhibition (IC50) worked out at 3900 nM in experiment [1] and 4.5 nM in experiment [2].
Take `Cc1ccc(-c2ccc(C[C@@H](C#N)NC(=O)[C@H]3N[C@@H]4CC[C@H]3C4)c(F)c2)o1` [Example 27]: the IC50 in experiment [1] turned out to be 3200 nM; in experiment [2], 4 nM.
Consider `N#C[C@H](Cc1ccc(-c2ccsc2)cc1F)NC(=O)[C@H]1N[C@@H]2CC[C@H]1C2` [Example 18], for which the IC50 in experiment [1] stood at 3000 nM; in experiment [2] it was 2.7 nM.
Turning to `N#C[C@H](Cc1ccc(-c2ccccc2)cc1F)NC(=O)[C@H]1N[C@@H]2CC[C@H]1C2` [Example 75], the IC50 stood at 5300 nM in experiment [1] and 11.4 nM in experiment [2].
In the case of `CN1C(=O)Cc2ccc(-c3cc(F)c(CC(C#N)NC(=O)[C@H]4N[C@@H]5CC[C@H]4C5)c(F)c3)cc21` (stereo partly drawn) [Example 61], the IC50 in experiment [1] was determined as 10900 nM; in experiment [2] it was 8.7 nM.
With `N#C[C@H](Cc1ccc(-c2cccc(S(N)(=O)=O)c2)cc1F)NC(=O)[C@H]1N[C@@H]2CC[C@H]1C2` [Example 37], the IC50 in experiment [1] was found to be 5100 nM; in experiment [2], 4.7 nM.
The corresponding values for `CNS(=O)(=O)c1ccc(-c2ccc(C[C@@H](C#N)NC(=O)[C@H]3N[C@H]4C[C@@H]3[C@@H]3C[C@@H]34)c(F)c2)cc1` [Example 150] are 9300 nM and 38.6 nM.
